The subject of one assay is HLA-DPB1*04:02. Kind of assay: In vitro HLA binding (data not shown). Details: species or system human.
For the next assay, the target named is HLA-DRB1*15:01 (Homo sapiens, UniProt P01903+P01911). Nature of the assay: biochemical. It is filed as binding.
The target of another assay is T1, HLA-DPB1*04:01 (Homo sapiens, UniProt P04440+P20036).
T1 sequence (P04440 30-258): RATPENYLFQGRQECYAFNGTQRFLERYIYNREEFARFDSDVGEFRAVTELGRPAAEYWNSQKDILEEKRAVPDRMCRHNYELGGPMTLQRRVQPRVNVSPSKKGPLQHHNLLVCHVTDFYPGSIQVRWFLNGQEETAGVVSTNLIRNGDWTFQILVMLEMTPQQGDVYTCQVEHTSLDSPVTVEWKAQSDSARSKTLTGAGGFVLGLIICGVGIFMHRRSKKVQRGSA
T1 sequence (P20036 29-260): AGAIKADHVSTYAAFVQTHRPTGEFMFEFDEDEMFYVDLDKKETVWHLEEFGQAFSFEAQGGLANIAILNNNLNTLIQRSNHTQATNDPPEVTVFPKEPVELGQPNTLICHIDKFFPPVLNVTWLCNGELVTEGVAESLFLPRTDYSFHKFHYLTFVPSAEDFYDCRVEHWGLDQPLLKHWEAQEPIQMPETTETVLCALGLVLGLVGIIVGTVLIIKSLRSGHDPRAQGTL
Nature of the assay: In vitro HLA binding (data not shown).

Another assay has as its system CD4+ T cells. Format: cell-based, human.
The next assay has as its target HLA-DRB1*09:01 (Homo sapiens, UniProt P01903+P01911, A100R/A103E/D57H/D86V/F55Y/F60I/F76Y/I96F/K127E/L162R/M171V/P40D/Q125H/Q99R/R33Q/R42F/S133A/S66N/T210M/V115G/W38K/Y107V/Y59G/Y89S). Nature of the assay: biochemical. It is filed as binding.
The next assay concerns the target HLA-DRB1*08:02 (Homo sapiens, UniProt P01903+P01911, A100R/A103L/A169T/F76Y/H45Y/I96F/K41T/L162R/M171V/P40S/Q125H/Q178H/Q39Y/Q99D/R218S/R42G/S66Y/V115G/W38E). Nature of the assay: biochemical. Format: binding.
The target in a further assay is HLA-DRB1*13:02 (Homo sapiens, UniProt P01903+P01911, A100E/A169T/K41T/L162R/M171V/P40S/Q125H/Q178H/Q39Y/Q99D/R42S/S66N/T262R/V115G/W38E/Y61H). Kind of assay: biochemical. Format: binding.
Chain of HLA-DRB1*13:02 (P01903 26-254 limits assumed, other chains not shown): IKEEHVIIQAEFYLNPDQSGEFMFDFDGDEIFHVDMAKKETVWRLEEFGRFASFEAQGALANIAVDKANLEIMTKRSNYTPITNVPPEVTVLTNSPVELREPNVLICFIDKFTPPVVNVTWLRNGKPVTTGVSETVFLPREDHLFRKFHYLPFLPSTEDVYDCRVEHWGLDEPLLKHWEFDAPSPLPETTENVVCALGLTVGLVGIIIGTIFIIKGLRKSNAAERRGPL
In a further assay the target is HLA-DRB1*03:01 (Homo sapiens, UniProt P01903+P01911, A100K/A102G/A103R/A169T/F55Y/I96L/K41T/L162R/M171V/P40S/Q125H/Q178H/Q39Y/R42S/S66N/T106N/T262R/W38E/Y61H). Kind of assay: biochemical. It is filed as binding.
Chain of HLA-DRB1*03:01 (P01903 26-254, other chains not shown): as the sequence (P01903 26-254 limits assumed, other chains not shown) above
For another assay, the target named is HLA-DRB1*04:01 (Homo sapiens, UniProt P01903+P01911, A100K/A169T/F76Y/I96L/K127E/L162R/M171V/N62H/P40V/Q125Y/R42H/S133A/S149N/S66Y/V115G/V209L/W38E). Kind of assay: biochemical. It is filed as binding.
The target of the next assay is HLA-DRB1*07:01 (Homo sapiens, UniProt P01903+P01911, A100R/A102G/A103Q/D57E/D86V/E43K/F76Y/K127E/L162R/M171V/P40G/Q125H/Q99D/R33Q/R42Y/R54Q/S133A/S66F/T210M/V115G/Y107V/Y59L/Y89S). Kind of assay: biochemical. Format: binding.
Another assay has as its target HLA-DRB1*11:01 (Homo sapiens, UniProt P01903+P01911, A100R/A169T/A87E/I96F/K41T/L162R/M171V/P40S/Q125H/Q178H/Q39Y/Q99D/R42S/S66Y/T262R/V115G/W38E). Nature of the assay: biochemical. It is filed as binding.
The target in a further assay is HLA-DRB1*01:01 (Homo sapiens, UniProt P01903+P01911, A100R/D57E/F55L/F60I/F76Y/I96L/L162R/M171V/P40L/Q125E/R42F/V115G/Y59C). Nature of the assay: biochemical. Format: binding.
The next assay concerns the target HLA-DRB1*04:05 (Homo sapiens, UniProt P01903+P01911, A100R/A169T/D86S/F76Y/I96L/K127E/L162R/M171V/N62H/P40V/Q125Y/R42H/S133A/S149N/S66Y/V115G/V209L/W38E). Kind of assay: biochemical. Format: binding.
The next assay has as its target HLA-DRB1*12:01 (Homo sapiens, UniProt P01903+P01911, A100R/A169T/D57E/D86V/F55L/H45Y/K41T/L162R/M171V/P40S/Q125H/Q178H/Q39Y/Q99D/R42G/S66L/T262R/V114A/V67L/W38E/Y59H/Y61H/Y89S). Nature of the assay: biochemical. It is filed as binding.

The record followed here is paper PMC9363231, “High‐resolution analysis of individual spike peptide‐specific CD4 ^+ T‐cell responses in vaccine recipients and COVID‐19 patients” (Clinical & Translational Immunology, 2022).

By IC50 is commonly meant the concentration that inhibits the measured activity by half.

Like-named read-outs stand apart in the source and are kept apart here. Where only a bound is given, the exact number is not on record here.

Chain of HLA-DRB1*11:01 (P01903 26-254 limits assumed, other chains not shown): as above

As to `CC(C)C[C@H](NC(=O)[C@H](Cc1ccccc1)NC(=O)[C@@H]1CCCN1C(=O)[C@H](CC(=O)O)NC(=O)[C@H](CC(N)=O)NC(=O)[C@H](CS)NC(=O)[C@H](Cc1ccccc1)NC(=O)[C@H](CCC(N)=O)NC(=O)[C@H](Cc1ccccc1)NC(=O)[C@H](CCC(=O)O)NC(=O)[C@@H](N)CS)C(=O)NCC(=O)N[C@H](C(=O)N[C@@H](Cc1ccc(O)cc1)C(=O)N[C@@H](Cc1ccc(O)cc1)C(=O)O)C(C)C` [peptide 27], the “binding to HLA-DPB1*04:02” value in the assay on HLA-DPB1*04:02 was “high affinity”. Moreover, the IC50 at HLA-DRB1*15:01 (read-out: in vitro binding capacity (IC50), DRB1*15:01) was determined as 7640 nM. In addition, at HLA-DPB1*04:01, the “binding to HLA-DPB1*04:01” value is listed as “high affinity”. In the assay on CD4+ T cells (responders / study participants carrying DRB1*01:01, CD4+ IFN-γ response, peptide 10 μg mL−1, after 14 days expansion), the “responding patients, DRB1*01:01” value is on record as 4/6. Further, the “responding patients, DRB1*03:01” value with CD4+ T cells (responders / study participants carrying DRB1*03:01, CD4+ IFN-γ response, peptide 10 μg mL−1, after 14 days expansion) is recorded as 2/3. The “responding patients, DRB1*04:01” value in the assay on CD4+ T cells (responders / study participants carrying DRB1*04:01, CD4+ IFN-γ response, peptide 10 μg mL−1, after 14 days expansion) was 4/4. In the assay with CD4+ T cells (responders / study participants carrying DRB1*07:01, CD4+ IFN-γ response, peptide 10 μg mL−1, after 14 days expansion), the “responding patients, DRB1*07:01” value is 5/8. Besides, the “responding patients, DRB1*11:01” value in the assay with CD4+ T cells (responders / study participants carrying DRB1*11:01, CD4+ IFN-γ response, peptide 10 μg mL−1, after 14 days expansion) is on record as 3/3. For the same compound, in the assay on CD4+ T cells (responders / study participants carrying DRB1*12:01, CD4+ IFN-γ response, peptide 10 μg mL−1, after 14 days expansion), the “responding patients, DRB1*12:01” value was 0/1. Further, the “responding patients, DRB1*15:01” value with CD4+ T cells (responders / study participants carrying DRB1*15:01, CD4+ IFN-γ response, peptide 10 μg mL−1, after 14 days expansion) is 3/7. The “response frequency (RF) / recognition rate of CD4+ T-cell response” value in the assay on CD4+ T cells (share of the 35 participants with a CD4+ IFN-γ response to the peptide) is 64%.

Take `CC(C)C[C@H](NC(=O)[C@H](C)NC(=O)[C@H](CC(C)C)NC(=O)[C@H](CC(C)C)NC(=O)[C@@H](NC(=O)[C@H](CCC(N)=O)NC(=O)[C@H](Cc1ccccc1)NC(=O)[C@H](CCCNC(=N)N)NC(=O)[C@@H](N)[C@@H](C)O)[C@@H](C)O)C(=O)N[C@@H](Cc1c[nH]cn1)C(=O)N[C@@H](CCCNC(=N)N)C(=O)N[C@@H](CO)C(=O)N[C@@H](Cc1ccc(O)cc1)C(=O)N[C@@H](CC(C)C)C(=O)N[C@H](C(=O)O)[C@@H](C)O` [peptide 48]: the IC50 at HLA-DRB1*09:01 came to 11 nM; against HLA-DRB1*08:02, 177 nM; at HLA-DRB1*13:02, 29900 nM; against HLA-DRB1*15:01 it was 5 nM; at HLA-DRB1*03:01, 13800 nM; on HLA-DRB1*04:01 it was 337 nM. In addition, the IC50 against HLA-DRB1*07:01 amounted to 3.9 nM; at HLA-DRB1*11:01 it was 14 nM; on HLA-DRB1*01:01, 38 nM; at HLA-DRB1*04:05, 794 nM; against HLA-DRB1*12:01, 18 nM.

Regarding `CC[C@H](C)[C@H](NC(=O)CN)C(=O)N[C@@H](Cc1ccc(O)cc1)C(=O)N[C@@H](CCC(N)=O)C(=O)N[C@H](C(=O)N[C@@H](CO)C(=O)N[C@@H](CC(N)=O)C(=O)N[C@@H](Cc1ccccc1)C(=O)N[C@@H](CCCNC(=N)N)C(=O)N[C@H](C(=O)N[C@@H](CCC(N)=O)C(=O)N1CCC[C@H]1C(=O)N[C@H](C(=O)N[C@@H](CCC(=O)O)C(=O)N[C@@H](CO)C(=O)O)[C@@H](C)O)C(C)C)[C@@H](C)O` [compound 63], the IC50 against HLA-DRB1*09:01 was 305 nM; on HLA-DRB1*08:02 it was > 40000 nM; on HLA-DRB1*13:02, 10700 nM; on HLA-DRB1*15:01 it was 21 nM; at HLA-DRB1*03:01, > 40000 nM; against HLA-DRB1*04:01, 62 nM. The half-maximal inhibitory concentration (IC50) against HLA-DRB1*07:01 came out at 12 nM; against HLA-DRB1*11:01, 1140 nM; against HLA-DRB1*01:01, 2390 nM; against HLA-DRB1*04:05, 201 nM; against HLA-DRB1*12:01, 2070 nM.

Turning to `CC[C@H](C)[C@H](N)C(=O)N1CCC[C@H]1C(=O)N[C@@H](Cc1ccccc1)C(=O)N[C@@H](C)C(=O)N[C@@H](CCSC)C(=O)N[C@@H](CCC(N)=O)C(=O)N[C@@H](CCSC)C(=O)N[C@@H](C)C(=O)N[C@@H](Cc1ccc(O)cc1)C(=O)N[C@@H](CCCNC(=N)N)C(=O)N[C@@H](Cc1ccccc1)C(=O)N[C@@H](CC(N)=O)C(=O)NCC(=O)N[C@H](C(=O)NCC(=O)O)[C@@H](C)CC` [peptide 180], the IC50 came out at 7.9 nM on HLA-DRB1*09:01; 553 nM against HLA-DRB1*08:02; 13700 nM against HLA-DRB1*13:02; 192 nM against HLA-DRB1*15:01; 11700 nM against HLA-DRB1*03:01; 443 nM against HLA-DRB1*04:01. Besides, the IC50 at HLA-DRB1*07:01 is 25 nM; on HLA-DRB1*11:01 it was 23 nM; against HLA-DRB1*01:01, 58 nM; on HLA-DRB1*04:05, 1610 nM; against HLA-DRB1*12:01, 2.2 nM.

For `CC(C)[C@H](NC(=O)CNC(=O)[C@H](Cc1ccc(O)cc1)NC(=O)[C@H](CS)NC(=O)[C@H](CCCCN)NC(=O)[C@H](Cc1ccccc1)NC(=O)[C@@H](NC(=O)[C@H](CO)NC(=O)[C@H](Cc1ccccc1)NC(=O)[C@H](CO)NC(=O)[C@H](C)NC(=O)[C@@H](N)CO)[C@@H](C)O)C(=O)N[C@@H](CO)C(=O)N1CCC[C@H]1C(=O)N[C@H](C(=O)O)[C@@H](C)O` [peptide 75], the IC50 against HLA-DRB1*09:01 is 117 nM; against HLA-DRB1*08:02, 4670 nM; against HLA-DRB1*13:02, > 40000 nM; against HLA-DRB1*15:01 it was 711 nM; against HLA-DRB1*03:01, > 40000 nM; on HLA-DRB1*04:01, 3330 nM. The 50% inhibitory concentration (IC50) came to 519 nM against HLA-DRB1*07:01; 626 nM against HLA-DRB1*11:01; 5290 nM on HLA-DRB1*01:01; 559 nM on HLA-DRB1*04:05; 11500 nM against HLA-DRB1*12:01.
